Drawing on patent publication US7501430B2 (ArQule, Inc., priority 2006, dated 2009), this text covers IC50 and inhibition for 11 compounds.

Molecules are shown by their SMILES.

The experiment deals with T1, mutant B-RAF (Homo sapiens, UniProt P15056, V600E).
T1 construct: purchased Upstate (Charlottesville, Va.)
As to the kind of experiment: RAF biochemical assay (MEK-1 phosphorylation, anti-phospho MEK1/2 detection). The note with it: for IC50: read-out: Mutant B-RAF IC50; for inhibition at 10 µM: read-out: Mutant B-RAF % inhibition. An outline of the steps:
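Detection is by ELISA: after a 30 min room-temperature reaction, plate-captured GST-MEK-1 is probed with anti-phospho MEK1/2, then an AP-tagged secondary antibody with fluorescent Attophos read-out.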

T1 sequence (P15056 whole entry V600E): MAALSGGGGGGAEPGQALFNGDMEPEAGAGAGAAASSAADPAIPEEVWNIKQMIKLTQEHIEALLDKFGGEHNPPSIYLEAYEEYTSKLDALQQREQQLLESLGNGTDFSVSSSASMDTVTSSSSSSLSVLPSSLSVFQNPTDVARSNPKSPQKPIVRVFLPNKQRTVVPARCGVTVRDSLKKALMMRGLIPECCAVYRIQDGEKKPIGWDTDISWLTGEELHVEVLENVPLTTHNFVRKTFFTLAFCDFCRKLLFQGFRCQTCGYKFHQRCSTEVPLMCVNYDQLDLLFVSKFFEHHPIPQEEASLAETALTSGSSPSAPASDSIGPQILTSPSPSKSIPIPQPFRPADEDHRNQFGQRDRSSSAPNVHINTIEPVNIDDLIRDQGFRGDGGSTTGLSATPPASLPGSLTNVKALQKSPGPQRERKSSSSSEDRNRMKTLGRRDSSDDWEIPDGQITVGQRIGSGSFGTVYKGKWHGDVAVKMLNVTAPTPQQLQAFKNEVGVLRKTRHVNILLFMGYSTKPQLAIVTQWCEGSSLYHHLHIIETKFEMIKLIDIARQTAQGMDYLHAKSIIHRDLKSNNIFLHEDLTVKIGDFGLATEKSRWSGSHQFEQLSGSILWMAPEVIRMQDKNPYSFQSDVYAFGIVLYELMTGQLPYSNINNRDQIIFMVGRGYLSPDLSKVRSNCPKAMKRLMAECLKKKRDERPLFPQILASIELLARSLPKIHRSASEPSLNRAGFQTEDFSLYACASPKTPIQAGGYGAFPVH

As to `CCNC(=O)N1CCC(Nc2nccc(-c3c(-c4ccc(F)cc4)nc4sc(C)cn34)n2)CC1` [Example 220, N-ethyl-4-({4-[6-(4-fluorophenyl)-2-methylimidazo[2,1-b][1,3]thiazol-5-yl]pyrimidin-2-yl}amino)piperidine-1-carboxamide], the concentration for half-maximal inhibition (IC50) was 0.428 µM.

For the compound `CN(C)c1ccc(C(=O)N2CCC(Nc3nccc(-c4c(-c5ccc(F)c(F)c5)nc5sccn45)n3)CC2)cc1` [Example 221, 4-[6-(3,4-difluorophenyl)imidazo[2,1-b][1,3]thiazol-5-yl]-N-{1-[4-(dimethylamino)benzoyl]piper-idin-4-yl}pyrimidin-2-amine], the inhibition at 10 µM worked out at 42%. The same measure, in the same setting: as for `CN(C)c1ccc(C(=O)N2CCC(Nc3nccc(-c4c(-c5ccc(F)cc5)nc5occn45)n3)CC2)cc1` [Example 222, N-{1-[4-(dimethylamino)benzoyl]piperidin-4-yl}-4-[6-(4-fluorophenyl)imidazo[2,1-b][1,3]oxazol-5-yl]pyrimidin-2-amine], the figure is 45%; as for `Fc1ccc(-c2nc3sccn3c2-c2ccnc(NC3CCNCC3)n2)cc1F` [Example 223, 4-[6-(3,4-difluorophenyl)imidazo[2,1-b][1,3]thiazol-5-yl]-N-piperidin-4-ylpyrimidin-2-amine], 71%; as for `Cc1cn2c(-c3ccnc(NC4CCNCC4)n3)c(-c3ccc(F)cc3)nc2s1` [Example 224, 4-[6-(4-fluorophenyl)-2-methylimidazo[2,1-b][1,3]thiazol-5-yl]-N-piperidin-4-ylpyrimidin-2-amine], 70%. Still for that read-out and setting: as for `Cc1cn2c(-c3ccnc(NC4CCN(C(=O)Nc5ccc(N(C)C)cc5)CC4)n3)c(-c3ccc(F)cc3)nc2s1` [Example 225, N-[4-(dimethylamino)phenyl]-4-({4-[6-(4-fluorophenyl)-2-methylimidazo[2,1-b][1,3]thiazol-5-yl]pyrimidin-2-yl}amino)piperidine-1-carboxamide], the figure is 38%; as for `CN(C)c1ccc(NC(=O)N2CCC(Nc3nccc(-c4c(-c5ccc(F)c(F)c5)nc5sccn45)n3)CC2)cc1` [Example 226, 4-({4-[6-(3,4-difluorophenyl)imidazo[2,1-b][1,3]thiazol-5-yl]pyrimidin-2-yl}amino)-N-[4-(dimethylamino)phenyl]piper-idine-1-carboxamide], 61%; as for `COc1ccc(Cl)cc1S(=O)(=O)N1CCC(Nc2nccc(-c3c(-c4ccc(F)cc4)nc4occn34)n2)CC1` [Example 227, N-{1-[(5-chloro-2-methoxyphenyl)sulfonyl]piper-idin-4-yl}-4-[6-(4-fluorophenyl)imidazo[2,1-b][1,3]oxazol-5-yl]pyrimidin-2-amine], 27%. The same measure, in the same setting: as for `CC(=O)Nc1nc(C)c(S(=O)(=O)N2CCC(Nc3nccc(-c4c(-c5ccc(F)cc5)nc5occn45)n3)CC2)s1` [Example 228, N-(5-{(4-({4-[6-(4-fluorophenyl)imidazo[2,1-b][1,3]oxazol-5-yl]pyrimidin-2-yl}amino)piperidin-1-yl]sulfonyl}-4-methyl-1,3-thiazol-2-yl)acetamide], the figure is 40%. For the compound `O=C(O)c1ccc(S(=O)(=O)N2CCC(Nc3nccc(-c4c(-c5ccc(F)cc5)nc5occn45)n3)CC2)cc1` [Example 229, 4-{[4-({4-[6-(4-fluorophenyl)imidazo[2,1-b][1,3]oxazol-5-yl]pyrimidin-2-yl}amino)piperidin-1-yl]sulfonyl)benzoic acid], the half-maximal inhibitory concentration (IC50) was 1.37 µM.

Regarding `Cc1nc(C)c(S(=O)(=O)N2CCC(Nc3nccc(-c4c(-c5ccc(F)cc5)nc5occn45)n3)CC2)s1` [Example 230, N-{1-[(2,4-dimethyl-1,3-thiazol-5-yl)sulfonyl]piperidin-4-yl)-4-[6-(4-fluorophenyl)imidazo[2,1-b][1,3]oxazol-5-yl]pyrimidin-2-amine], the inhibition at 10 µM is 50%.
